According to PubChem BioAssay AID336 (DTP/NCI, 2004):
Values joined by “and” are separate entries in the source; they are usually repeats but may differ in a detail not shown here. Identical values can stand only once. Inconclusive results and toxic doses are left out.

Test system: BDF1 mice, P388/VCR leukemia ip, median survival T/C
Experiment: NCI In Vivo Anticancer Drug Screen. Data for tumor model P388 Leukemia resistant to Vincristine; NSC 67574 (intraperitoneal) in B6D2F1 (BDF1) mice
Details: endpoint: median survival time, higher = longer survival
Experimental: The antitumor activity of compounds was measured in mice bearing transplantable tumors. Survival or tumor size were measured and the results are expressed as the measurement made in the treated group (T) divided by the measurement made in the vehicle treated control group (C). The tumor model used in this assay is P388 Leukemia resistant to Vincristine; NSC 67574 (intraperitoneal) in B6D2F1 (BDF1) mice

[1] = dose: 5.0 mg/kg/injection, schedule: Q01DX010 (ip), vehicle: saline
[2] = dose: 10.0 mg/kg/injection, schedule: Q01DX010 (ip), vehicle: saline
[3] = dose: 40.0 mg/kg/injection, schedule: Q01DX010 (ip), vehicle: saline
[4] = dose: 20.0 mg/kg/injection, schedule: Q01DX010 (ip), vehicle: saline
[5] = dose: 21.6 mg/kg/injection, schedule: Q04DX003 (ip), vehicle: saline
[6] = dose: 60.0 mg/kg/injection, schedule: Q01DX010 (ip), vehicle: saline
[7] = dose: 500.0 mg/kg/injection, schedule: Q01DX010 (ip), vehicle: saline
[8] = dose: 62.5 mg/kg/injection, schedule: Q01DX010 (ip), vehicle: saline
[9] = dose: 125.0 mg/kg/injection, schedule: Q01DX010 (ip), vehicle: saline
[10] = dose: 250.0 mg/kg/injection, schedule: Q01DX010 (ip), vehicle: saline
[11] = dose: 6.25 mg/kg/injection, schedule: Q01DX010 (ip), vehicle: saline
[12] = dose: 25.0 mg/kg/injection, schedule: Q01DX010 (ip), vehicle: saline
[13] = dose: 50.0 mg/kg/injection, schedule: Q01DX010 (ip), vehicle: saline
[14] = dose: 100.0 mg/kg/injection, schedule: Q01DX010 (ip), vehicle: saline
[15] = dose: 200.0 mg/kg/injection, schedule: Q01DX010 (ip), vehicle: saline

## COC1C(O)C(C)OC(OC2C(Oc3cccc4c(O)c5c(=O)oc6ccc(C)c7c(=O)oc(c34)c5c67)OC(C)C(O)C2O)C1O (stereo unspecified)
dose: 43.2 mg/kg/injection, schedule: Q04DX003 (ip), vehicle: acid diluted with saline
  T/C: 121 % of control
dose: 72.0 mg/kg/injection, schedule: Q04DX003 (ip), vehicle: acid diluted with saline
  T/C: 114 % of control
dose: 200.0 mg/kg/injection, schedule: Q04DX003 (ip), vehicle: acid diluted with saline
  T/C: 123 % of control

## C[n+]1ccc(NC(=O)c2ccc(NC(=O)c3cccc(C(=O)Nc4ccc(C(=O)Nc5cc[n+](C)cc5)cc4)c3)cc2)cc1
[1]
  T/C: 100 % of control
[2]
  T/C: 107 % of control
[3]
  T/C: 166 % of control

## O=c1[nH]cc(F)c(=O)[nH]1
dose: 2.5 mg/kg/injection, schedule: Q01DX010 (ip), vehicle: saline
  T/C: 155 % of control
[2]
  T/C: 200 % of control
[4]
  T/C: 116 % of control and 235 % of control
[5]
  T/C: 154 % of control
dose: 36.0 mg/kg/injection, schedule: Q04DX003 (ip), vehicle: saline
  T/C: 188 % of control
dose: 60.0 mg/kg/injection, schedule: Q04DX003 (ip), vehicle: saline
  T/C: 252 % of control
dose: 100.0 mg/kg/injection, schedule: Q04DX003 (ip), vehicle: saline
  T/C: 270 % of control

## C[N+](C)(C)c1ncnc2nc[nH]c12
dose: 15.0 mg/kg/injection, schedule: Q01DX010 (ip), vehicle: saline
  T/C: 100 % of control
dose: 30.0 mg/kg/injection, schedule: Q01DX010 (ip), vehicle: saline
  T/C: 120 % of control
[6]
  T/C: 113 % of control
dose: 120.0 mg/kg/injection, schedule: Q01DX010 (ip), vehicle: saline
  T/C: 116 % of control

## CCOC(N)=O
[7]
  T/C: 107 % of control and 119 % of control

## NC(C/[N+]([O-])=N/O)C(=O)O (stereo unspecified)
dose: 173.0 mg/kg/injection, schedule: Q04DX003 (ip), vehicle: sodium bicarbonate
  T/C: 157 % of control
dose: 288.0 mg/kg/injection, schedule: Q04DX003 (ip), vehicle: sodium bicarbonate
  T/C: 179 % of control
dose: 480.0 mg/kg/injection, schedule: Q04DX003 (ip), vehicle: sodium bicarbonate
  T/C: 181 % of control
dose: 800.0 mg/kg/injection, schedule: Q04DX003 (ip), vehicle: sodium bicarbonate
  T/C: 118 % of control

## CC(CCC(C)OS(C)(=O)=O)OS(C)(=O)=O (stereo unspecified)
dose: 2.0 mg/kg/injection, schedule: Q01DX010 (ip), vehicle: saline
  T/C: 100 % of control
dose: 4.0 mg/kg/injection, schedule: Q01DX010 (ip), vehicle: saline
  T/C: 96 % of control
dose: 8.0 mg/kg/injection, schedule: Q01DX010 (ip), vehicle: saline
  T/C: 96 % of control and 100 % of control
dose: 16.0 mg/kg/injection, schedule: Q01DX010 (ip), vehicle: saline
  T/C: 100 % of control and 112 % of control
dose: 32.0 mg/kg/injection, schedule: Q01DX010 (ip), vehicle: saline
  T/C: 90 % of control

## O=C(Nc1ccc(C2=NCCN2)cc1)c1ccc(NC(=O)c2ccc(C3=NCCN3)cc2)cc1
dose: 18.0 mg/kg/injection, schedule: Q01DX010 (ip), vehicle: saline
  T/C: 104 % of control
dose: 27.0 mg/kg/injection, schedule: Q01DX010 (ip), vehicle: saline
  T/C: 108 % of control
[3]
  T/C: 113 % of control
[6]
  T/C: 113 % of control

## c1ccc(CCSc2ncnc3nc[nH]c23)cc1
[8]
  T/C: 88 % of control
[9]
  T/C: 88 % of control
[10]
  T/C: 96 % of control
[7]
  T/C: 107 % of control

## COC(=O)C[C@](O)(CCC(C)(C)O)C(=O)O[C@@H]1C(OC)=C[C@]23CCCN2CCc2cc4c(cc2[C@H]13)OCO4
dose: 0.25 mg/kg/injection, schedule: Q01DX009 (ip), vehicle: saline
  T/C: 92 % of control
dose: 0.5 mg/kg/injection, schedule: Q01DX009 (ip), vehicle: saline
  T/C: 100 % of control
dose: 1.0 mg/kg/injection, schedule: Q01DX009 (ip), vehicle: saline
  T/C: 88 % of control

## CC[C@H]1CN2CCc3cc(OC)c(OC)cc3[C@@H]2C[C@@H]1C[C@H]1NCCc2cc(OC)c(OC)cc21
dose: 7.78 mg/kg/injection, schedule: Q04DX003 (ip), vehicle: saline
  T/C: 105 % of control
dose: 13.0 mg/kg/injection, schedule: Q04DX003 (ip), vehicle: saline
  T/C: 108 % of control
[5]
  T/C: 105 % of control

## CCCSc1ncnc2nc[nH]c12
dose: 31.3 mg/kg/injection, schedule: Q01DX010 (ip), vehicle: saline
  T/C: 95 % of control
[8]
  T/C: 95 % of control
[9]
  T/C: 88 % of control and 95 % of control
[10]
  T/C: 95 % of control

## C[C@@H]1C[C@@H]([C@H](O)CC2CC(=O)NC(=O)C2)C(=O)[C@@H](C)C1
[1]
  T/C: 92 % of control and 108 % of control
[2]
  T/C: 100 % of control and 104 % of control
[4]
  T/C: 112 % of control and 116 % of control
[3]
  T/C: 120 % of control and 124 % of control

## O=P1(N(CCCl)CCCl)NCCCO1 (stereo unspecified)
dose: 144.0 mg/kg/injection, schedule: Q01DX001 (ip), vehicle: saline
  T/C: 181 % of control
dose: 240.0 mg/kg/injection, schedule: Q01DX001 (ip), vehicle: saline
  T/C: 194 % of control

## CS(=O)(=O)OCCCCOS(C)(=O)=O
[11]
  T/C: 88 % of control and 96 % of control
[12]
  T/C: 92 % of control
[13]
  T/C: 96 % of control

## COC(=O)[C@@]12OC[C@]34[C@H]([C@@H](O)[C@@H]1O)[C@@]1(C)CC(=O)C(O)=C(C)[C@@H]1C[C@H]3OC(=O)[C@H](OC(=O)/C=C(\C)C(C)C)[C@@H]24
dose: 389.0 micrograms/kg/injection, schedule: Q01DX004 (ip), vehicle: saline + alcohol
  T/C: 103 % of control
dose: 432.0 micrograms/kg/injection, schedule: Q01DX009 (ip), vehicle: saline + alcohol
  T/C: 98 % of control
dose: 648.0 micrograms/kg/injection, schedule: Q01DX004 (ip), vehicle: saline + alcohol
  T/C: 109 % of control
dose: 720.0 micrograms/kg/injection, schedule: Q01DX009 (ip), vehicle: saline + alcohol
  T/C: 100 % of control

## CO[C@@]12[C@H](COC(N)=O)C3=C(C(=O)C(C)=C(N)C3=O)N1C[C@@H]1N[C@@H]12
dose: 1.08 mg/kg/injection, schedule: Q04DX003 (ip), vehicle: saline
  T/C: 184 % of control
dose: 1.8 mg/kg/injection, schedule: Q04DX003 (ip), vehicle: saline
  T/C: 221 % of control
dose: 3.0 mg/kg/injection, schedule: Q04DX003 (ip), vehicle: saline
  T/C: 184 % of control
dose: 5.0 mg/kg/injection, schedule: Q04DX003 (ip), vehicle: saline
  T/C: 124 % of control

## CC[C@](O)(C(=O)O)c1cc2n(c(=O)c1CO)Cc1cc3ccccc3nc1-2
dose: 14.4 mg/kg/injection, schedule: Q04DX003 (ip), vehicle: saline
  T/C: 155 % of control
dose: 24.0 mg/kg/injection, schedule: Q04DX003 (ip), vehicle: saline
  T/C: 180 % of control
dose: 40.0 mg/kg/injection, schedule: Q04DX003 (ip), vehicle: saline
  T/C: 102 % of control
dose: 66.7 mg/kg/injection, schedule: Q04DX003 (ip), vehicle: saline
  T/C: 161 % of control

## O=C1C(NC(=O)C2CCCCC2)=C(N2CC2)C(=O)C(NC(=O)C2CCCCC2)=C1N1CC1
[12]
  T/C: 103 % of control
[13]
  T/C: 115 % of control
[14]
  T/C: 115 % of control
[15]
  T/C: 123 % of control

## O=C(Nc1ccc(C2=NCCN2)cc1)c1ccc(C(=O)Nc2ccc(C3=NCCN3)cc2)c(NC(=O)c2ccc(C(=O)Nc3cc(C(=O)Nc4ccc(C5=NCCN5)cc4)ccc3C(=O)Nc3ccc(C4=NCCN4)cc3)cc2)c1
[12]
  T/C: 109 % of control
[13]
  T/C: 109 % of control
[14]
  T/C: 104 % of control
[15]
  T/C: 104 % of control

## N[C@@H](Cc1ccc(N(CCCl)CCCl)cc1)C(=O)O
dose: 3.6 mg/kg/injection, schedule: Q01DX001 (ip), vehicle: saline
  T/C: 184 % of control
dose: 6.0 mg/kg/injection, schedule: Q01DX001 (ip), vehicle: saline
  T/C: 181 % of control
dose: 10.0 mg/kg/injection, schedule: Q01DX001 (ip), vehicle: saline
  T/C: 191 % of control
dose: 16.7 mg/kg/injection, schedule: Q01DX001 (ip), vehicle: saline
  T/C: 161 % of control

## CC1CCOS(=O)O1 (stereo unspecified)
[2]
  T/C: 96 % of control
[4]
  T/C: 103 % of control
[3]
  T/C: 103 % of control

## CC1CN=C(c2ccc(NC(=O)c3ccc(C(=O)Nc4ccc(C5=NCC(C)N5)cc4)cc3)cc2)N1 (stereo unspecified)
dose: 22.0 mg/kg/injection, schedule: Q01DX010 (ip), vehicle: saline
  T/C: 113 % of control
dose: 33.0 mg/kg/injection, schedule: Q01DX010 (ip), vehicle: saline
  T/C: 109 % of control

## O=C(O)CCCc1ccc(N(CCCl)CCCl)cc1
dose: 3.13 mg/kg/injection, schedule: Q01DX010 (ip), vehicle: saline
  T/C: 92 % of control and 104 % of control
[11]
  T/C: 100 % of control
dose: 12.5 mg/kg/injection, schedule: Q01DX010 (ip), vehicle: saline
  T/C: 152 % of control
